Reference: US7304077B2, “Chemical compounds” (AstraZeneca AB, priority 2001, dated 2007)

Compound	melting point
CS(=O)(=O)Nc1cccc(C(=O)NCCN2CCC(Oc3ccc(Cl)c(Cl)c3)CC2)c1 [Compound 24 of Table I, N-{2-[4(3,4-dichlorophenoxy)-1-piperidinyl]ethyl}-3-[(methylsulfonyl)amino]benzamide]	150 to 151 °C
O=C(NCCN1CCC(Oc2ccc(Cl)c(Cl)c2)CC1)c1nnc(Nc2ccccc2Cl)o1 [Example 31, 5-(2-chloroanilino)-N-{2-[4-(3,4-dichlorophenoxy)-1-piperidinyl]ethyl}-1,3,4-oxadiazole-2-carboxamide]	161 to 162 °C
COc1cccc(C(=O)N(C)CCN2CCC(Oc3ccc(F)c(F)c3)CC2)c1.Cl	218 °C
CS(=O)(=O)Cc1ccc(C(=O)NCCN2CCC(Oc3ccc(Cl)c(Cl)c3)CC2)cc1 [Compound 7 of Table I, N-{2-[4-(3,4-dichlorophenoxy)-1-piperidinyl]ethyl}-4-[(methylsulfonyl)methyl]benzamide]	179 to 181 °C
O=C(NCCN1CCC(Oc2ccc(Cl)c(Cl)c2)CC1)c1ccc(-n2cccn2)nc1 [Example 28, N-{2-[4-(3,4-dichlorophenoxy)-1-piperidinyl]ethyl}-6-(1H-pyrazol-1-yl)nicotinamide]	154 to 155 °C
CCn1cc(C(=O)NCCN2CCC(Oc3ccc(Cl)c(Cl)c3)CC2)c(=O)c2ccc(C)nc21 [Example 23, N-{2-[4-(3,4-dichlorophenoxy)-1-piperidinyl]ethyl}-1-ethyl-7-methyl-4-oxo-1,4-dihydro[1,8]naphthyridine-3-carboxamide]	169 to 217 °C
CS(=O)(=O)c1cccc(C(=O)NCCCN2CCC(Oc3ccc(Cl)c(Cl)c3)CC2)c1.Cl	212 °C
O=C(NCCN1CCC(Oc2ccc(Cl)c(Cl)c2)CC1)c1cn2ccccc2n1 [Example 30, N-{2-[4-(3,4-dichlorophenoxy)-1-piperidinyl]ethyl}imidazo[1,2-a]pyridine-2-carboxamide]	150 to 151 °C
CS(=O)(=O)Cc1cccc(C(=O)NCCN2CCC(Oc3ccc(Cl)c(Cl)c3)CC2)c1 [Compound 5 of Table I, N-{2-[4-(3,4-dichlorophenoxy)-1-piperidinyl]ethyl}-3-[(methylsulfonyl)methyl]benzamide]	112 to 114 °C
CS(=O)(=O)c1ccc(C(=O)NCCN2CCC(Oc3ccc(Cl)c(Cl)c3)CC2)cc1 [Example 29, N-{2-[4-(3,4-dichlorophenoxy)-1-piperidinyl]ethyl}-4-(methylsulfonyl)benzamide]	100 to 101 °C
CS(=O)(=O)c1cccc(C(=O)NCCN2CCC(Oc3ccc(Cl)c(Cl)c3)CC2)c1.Cl	219 °C
NS(=O)(=O)c1cccc(C(=O)NCCN2CCC(Oc3ccc(Cl)c(Cl)c3)CC2)c1 [Example 22, 3-(aminosulfonyl)-N-{2-[4-(3,4-dichlorophenoxy)-1-piperidinyl]ethyl}benzamide]	168 to 169 °C
CS(=O)(=O)c1ccc(C(=O)NCCN2CCC(Oc3ccc(Cl)c(Cl)c3)CC2)s1 [Example 27, N-{2-[4-(3,4-dichlorophenoxy)-1-piperidinyl]ethyl}-5-(methylsulfonyl)-2-thiophenecarboxamide]	142 to 143 °C
O=C(Cn1nnc(N2CCCC2)n1)NCCN1CCC(Oc2ccc(Cl)c(Cl)c2)CC1 [Compound 34 of Table II, N-{2-[4-(3,4-dichlorophenoxy)-1-piperidinyl]ethyl}-2-[5-(1-pyrrolidinyl)-2H-tetraazol-2-yl]acetamide]	114 to 116 °C

Now from value to molecule:

melting point	Compound
123 to 124 °C	Cc1cc(OC2CCN(CCNC(=O)c3ccc(S(C)(=O)=O)cc3)CC2)ccc1Cl [Example 37, N-{2-[4-(4-chloro-3-methylphenoxy)-1-piperidinyl]ethyl}-4-(methylsulfonyl)benzamide]
171 to 172 °C	Cc1c(Cl)ccc(OC2CCN(CCNC(=O)c3ccc(S(C)(=O)=O)cc3)CC2)c1Cl [Example 34, N-{2-[4-(2,4-dichloro-3-methylphenoxy)-1-piperidinyl]ethyl}-4-(methylsulfonyl)benzamide]
183 to 184 °C	Cc1cc(OC2CCN(CCNC(=O)c3ccc(-n4cccn4)nc3)CC2)ccc1Cl [Example 38, N-{2-[4-(4-chloro-3-methylphenoxy)-1-piperidinyl]ethyl}-6-(1H-pyrazol-1-yl)nicotinamide]
109 to 110 °C	O=C(NCCN1CCC(Oc2ccc(F)cc2Cl)CC1)c1ccc(-n2cccn2)nc1 [Example 32, N-{2-[4-(2-chloro-4-fluorophenoxy)-1-piperidinyl]ethyl}-6-(1H-pyrazol-1-yl)nicotinamide]
71 to 72 °C	Cc1c(Cl)ccc(OC2CCN(CCNC(=O)c3ccccc3S(C)(=O)=O)CC2)c1Cl [Example 36, N-{2-[4-(2,4-dichloro-3-methylphenoxy)-1-piperidinyl]ethyl}-2-(methylsulfonyl)benzamide]
115 to 116 °C	CS(=O)(=O)Cc1ccc(C(=O)NCCN2CCC(Oc3ccc(F)c(F)c3)CC2)cc1 [Example 44, N-{2-[4-(3,4-difluorophenoxy)-1-piperidinyl]ethyl}-4-[(methylsulfonyl)methyl]benzamide]
106 to 107 °C	N#Cc1cccc(C(=O)NCCN2CCC(Oc3ccc(F)c(F)c3)CC2)c1 [Example 43, 3-cyano-N-{2-[4-(3,4-difluorophenoxy)-1-piperidinyl]ethyl}benzamide]
177 to 178 °C	Cc1c(Cl)ccc(OC2CCN(CCNC(=O)c3ccc(S(C)(=O)=O)s3)CC2)c1Cl [Example 35, N-{2-[4-(2,4-dichloro-3-methylphenoxy)-1-piperidinyl]ethyl}-5-(methylsulfonyl)-2-thiophenecarboxamide]
50 to 51 °C	CS(=O)(=O)c1cccc(C(=O)NCCN2CCC(Oc3ccc(F)cc3Cl)CC2)c1 [Example 33, N-{2-[4-(2-chloro-4-fluorophenoxy)-1-piperidinyl]ethyl}-3-(methylsulfonyl)benzamide]
146 to 147 °C	N#Cc1ccccc1C(=O)NCCN1CCC(Oc2ccc(F)c(F)c2)CC1 [Example 41, 2-cyano-N-{2-[4-(3,4-difluorophenoxy)-1-piperidinyl]ethyl}benzamide]
108 to 109 °C	CS(=O)(=O)c1ccc(C(=O)NCCN2CCC(Oc3ccc(F)c(F)c3)CC2)c(Cl)c1 [Example 42, 2-chloro-N-{2-[4-(3,4-difluorophenoxy)-1-piperidinyl]ethyl}-4-(methylsulfonyl)benzamide]
80 to 81 °C	NS(=O)(=O)c1cc(C(=O)NCCN2CCC(Oc3ccc(F)c(F)c3)CC2)ccc1Cl [Example 40, 3-(aminosulfonyl)-4-chloro-N-{2-[4-(3,4-difluorophenoxy)-1-piperidinyl]ethyl}benzamide]
